{
  "source": "patent US20200276181A1",
  "about": "“THIENOISOQUINOLINES AND THEIR DERIVATIVES FOR TARGETING TUBULIN, CH-TOG, AURORA A KINASE, TPX2, CDK5RAP2 AND/OR ASPM” (VALORBEC, SEC, priority 2017, published 2020)",
  "key": {"[1]": {"system": "HeLa cells (GFP:tubulin, SiR-tubulin or GFP-tagged ch-TOG)", "experiment": "Live imaging of spindles", "assay_type": "cell-based, human", "excerpt": "Bars show standard deviation. […] The bars indicate standard deviation. […] Bars show standard deviation. […] Bars show standard deviation. […] The scale bar for all cells is 10 μm."}, "[2]": {"system": "HFF1 (non-cancer) cells", "experiment": "Percentage of mitotic cells, nocodazole +/- C75", "assay_type": "cell-based", "conditions": "200 nM C75 + 33 or 66 nM nocodazole", "description": "FIG. 3A) is a line graph showing cytotoxicity of HeLa cells after treatment with varying concentrations of C75+/−a subthreshold dose of paclitaxel (Taxol™; 3 nM). The IC50 is shown by the dotted line. Bars show standard deviation. […] The bars indicate standard deviation. FIG. 3C) is a series of bar graphs showing the proportion of HCT 116 cells with bipolar aligned (grey), bipolar misaligned (dark grey), multipolar/fragmented (light grey, top portion of each bar) or monopolar (black) spindles 7 hours after treatment with control (DMSO), varying concentrations of paclitaxel or C75, or both as indicated (n=691; N=3). The bars show standard deviation. The combination treatments were compared to paclitaxel and C75 on their own by calculating ratios varying from the predicted ratio, and found to synergize at 100 and 200 nM. FIG. 3D) is bar graph showing the average distance between centrosome fragments in HCT116 cells after treatments as shown. While centrosome fragments moved closer together with increased concentrations of paclitaxel, they moved further apart with increased concentrations of C75 (n=105; N=3). […] FIG. 3F) is a line graph showing the percentage of mitotic HeLa or HFF1 cells treated with a range of nocodazole concentrations+/−C75 as indicated. The bars indicate standard deviation. […]"}, "[3]": {"system": "HCT116 cells", "experiment": "Spindle phenotypes, fixed cells stained for γ-tubulin and ACA", "assay_type": "cell-based", "conditions": "300 nM for 4 hours", "excerpt": "(§1) For each condition, 20,000 cells were counted per replicate (N=3). Line graphs (right) were made to better illustrate the relative changes in the cell cycle phases for the different treatments. Bars show standard deviation. The asterisks indicate the first statistically significant change in the G0/G1 and G2/M populations determined by a two-way ANOVA with a post-hoc Tukey's multiple comparisons test using 95% confidence intervals. FIG. 2B) is a line graph showing the percentage of HCT116 (p53−/−) cells, A549 cells, HeLa cells and H1299 cells in mitosis after treatment with various concentrations of C75 for one population doubling time. All of the cell lines show an increase in the proportion of mitotic cells after treatment with 200 nM C75. The bars indicate standard deviation. […] While the mitotic spindles were not dramatically altered by C75 in HFF1 cells, they were monopolar (as shown) or fragmented in the other cell types. […] The mitotic spindles were more strongly fragmented after C75 treatment in these cells vs. the cells in FIG. 2C). FIG. 2E) are images showing fixed HFF1, HeLa, A549 and HCT 116 cells co-stained for γ-tubulin (spindle poles; white) and ACA (centromeres; light grey) 4 hours after treatment with 300 nM C87 (control) or 300 nM C75. Cartoon schematics show examples of the different spindle phenotypes, including bipolar with aligned chromosomes (top), bipolar with misaligned chromosomes (upper middle), multipolar/fragmented (lower middle), or monopolar (bottom), and the proportion of that phenotype is shown in the top right corner of each image. FIG. 2F) is a bar graph showing the proportion of the different spindle phenotypes for HFF1, HeLa, A549 and HCT 116 cells treated as in FIG. 2E) (n=1355; N=3). Bars show standard deviation. […] While mitotic spindles recovered bipolarity after removing nocodazole, they remained multipolar after removing C75. […] FIG. 2J) is a bar graph showing the proportion of cells with monopolar (black), bipolar (dark grey) or multipolar (light grey) spindles. Bars show standard deviation. FIG. 2K) is a series of time-lapse images of a live HeLa cell expressing GFP:tubulin after treatment with C75 as shown in 2G). […] Drugs were not washed out. […]\n(§2) C75 was also tested for efficacy in different cancer cell lines. […] To further assess the role of C75 in disrupting spindles, HeLa cells were treated with 300 nM C75 for 4 hours and the spindle phenotypes were analyzed in more detail (FIG. 2E). […] To assess the affect of C75 on centrosomes, HeLa cells were treated with C75 or nocodazole (a drug that causes microtubule depolymerization as a control) for a short period of time (5 minutes), then the drugs were removed and the cells were analyzed for spindle phenotypes (schematic in FIG. 2G). […]"}, "[4]": {"system": "HFF-1 cells", "experiment": "Spindle phenotypes, fixed cells stained for γ-tubulin and ACA", "assay_type": "cell-based", "conditions": "300 nM for 4 hours", "excerpt": "as §1, §2"}},
  "data": [
    {"smiles": "COc1ccc(S(=O)(=O)N2Cc3ccccc3-c3sc(Br)cc32)cc1", "note": "[Compound C75]", "values": [
      {"measurement": "time until spindle poles collapse together in metaphase cells", "setting": "[1]; 100-300 nM", "value": "1 to 2", "unit": "min"},
      {"measurement": "time after exposure until centrosomes fragmented or declustered and microtubules collapsed", "setting": "[1]; HeLa live imaging", "value": "4 to 6", "unit": "min"},
      {"measurement": "time after washout until microtubule polymers grew back", "setting": "[1]; HeLa live imaging", "value": "20 to 30", "unit": "min"},
      {"measurement": "microtubule polymers without washout", "setting": "[1]; HeLa live imaging, drugs not washed out", "value": "microtubule polymers grow back to form multipolar spindles"},
      {"measurement": "change in proportion of mitotic cells", "setting": "[2]", "value": "no change"},
      {"measurement": "cells with bipolar spindles with misaligned chromosomes", "setting": "[3]", "value": 22, "unit": "%"},
      {"measurement": "cells with monopolar spindles", "setting": "[3]", "value": 35, "unit": "%"},
      {"measurement": "cells with multipolar or fragmented spindles", "setting": "[3]", "value": 13, "unit": "%"},
      {"measurement": "cells with bipolar spindles with aligned chromosomes", "setting": "[4]", "value": 88, "unit": "%"}
    ]}
  ]
}
